Read-outs that look alike come from different tables or passages of the source.
Experiments:
[1] = tested on: Coxsackie B3 (Nancy strain) virus; test: CVB3-induced pancreatitis mouse model; assay type: in vivo; conditions: Coxsackie B3 Nancy strain infected SJL mice, 4 different dosages, treated 2 h pre-infection then once daily for 3 days
Method: Compounds of the present invention were studied in a CVB3 induced pancreatitis mouse model as described by van der Schaar et al (Antimicrob. Agents Chemother. 2013, 57(10):4971-4981). Animals (SJL mice) were infected intraperitoneally with 0.3 ml Coxsackie B3 (Nancy strain) virus (log TCID50=8). The animals were treated 2 h pre-infection and then once daily for 3 days. The animals were euthanized and organs were collected for pancreatitis evaluation by histopathology and for virus titer determination by immunohistochemistry and polymerase chain reaction (PCR). Pancreata were obtained from infected and uninfected control animals and from animals treated with 4 different dosages of Example 8, and HE-stained slides of the organs were prepared, studied and scored for signs of inflammation and necrosis on a scale from 0 to 3, as follows: 0=no abnormalities. […] The virus titer in the organs was determined by immunohistochemistry using the Dako 5-D8/1 monoclonal mouse antibody and the titer was scored on a scale from 0 to 4, where 0 indicates no infection and 4 corresponds to the highest determined virus titer (FIG. 4). The Ct values from PCR detection of virus titers were determined (FIG. 5). […] Corresponding studies were also performed on Examples 2, 8 and 20 at a dosage of 50 mg/kg/day and pancreatitis scoring and Ct values were determined (FIG. 6).

[2] = in vivo; design: species or system Sprague Dawley rats; conditions: Sprague Dawley, rat, po
Method: Based on previous toxicity tests with analogs and pharmacokinetic data, repeated dose toxicity and toxicokinetic studies were conducted to generate information on the toxic characteristics of some representative compounds of the invention, viz. Example 8 and Example 12, respectively, when administered orally by gavage to Sprague Dawley rats for a period of 7 consecutive days. The study plan for the studies was by current ICH guidelines for 7 days toxicity studies and the No Observed Adverse Effect Level (NOAEL) of Example 8 and Example 12 was determined as 60 mg/kg body weight/day and 50 mg/kg bodyweight/day respectively when administered once daily orally to Sprague Dawley rats for 7 consecutive days under the tested dose levels and experimental conditions employed.

[3] = tested on: EV71; test: Time of addition assay; assay type: cell-based, Enterovirus 71; conditions: Enterovirus A, 100 nM, EV71 at high titer
Method: The titer of the virus was determined by the standard method of tissue culture infective dose (TCID50) on cells. Briefly, cells were infected with 50 μl of virus suspension, and diluted 10-fold in media. The plates were incubated in 37° C. with 5% CO2 for 3-7 days and cells were inspected daily for CPE. After determining CPE, plates were stained with Gram's Crystal Violet solution and optical density was read at 540 nm. […] Substances at a final concentration of 0.1 nM-1 μM and the virus were added to the cells and incubated for 3-7 days depending on the virus and cell line used. As controls, uninfected cells and cells infected with virus (no substance) were included on each plate. The cells were stained with crystal violet after determining the CPE on infected controls and the optical density was read at 540 nm. The inhibition capacity was calculated as a % by comparison with non-infected and infected controls. Time of addition assay The assay was performed like the “in vitro assay in mammalian cell culture” described above with the exception that substance was added one hour pre inoculation (−1 h), at inoculation (0 h), and 2 hours (+2 h), 6 hours (+6 h) or 24 hours (+24 h) past inoculation. The virus EV71 was used at high titer for the test.

SMILES	Dose-response of pancreatitis scoring and virus titer [1]	NOAEL at 7 days [2] [mg/kg/day]	inhibition at 0.1 µM ([3]; 0 h, substance added at inoculation, read-out: Inhibition of cytopathogenic effect, 0 h) [%]	inhibition at 0.1 µM ([3]; 1 h, substance added one hour pre inoculation, read-out: Inhibition of cytopathogenic effect, −1 h) [%]	inhibition at 0.1 µM ([3]; substance added 2 hours past inoculation, read-out: Inhibition of cytopathogenic effect, +2 h) [%]	inhibition at 0.1 µM ([3]; substance added 6 hours past inoculation, read-out: Inhibition of cytopathogenic effect, +6 h) [%]	inhibition at 0.1 µM ([3]; substance added 24 hours past inoculation, read-out: Inhibition of cytopathogenic effect, +24 h) [%]
Cc1cc(NCc2ccncc2)n2nc(C)c(-c3ccc4c(c3)c(C)nn4C)c2n1 [Example 8, 3-(1,3-dimethyl-1H-indazol-5-yl)-2,5-dimethyl-N-(pyridin-4-ylmethyl)pyrazolo[1,5-a]pyrimidin-7-amine]	very good dose-response	60					
Cc1nc(NCc2ccncc2)n2nc(C)c(-c3ccc4c(c3)c(C)nn4C)c2n1 [Example 20, 8-(1,3-dimethyl-1H-indazol-5-yl)-2,7-dimethyl-N-(pyridin-4-ylmethyl)pyrazolo[1,5-a][1,3,5]triazin-4-amine]			94	85	95	99	2

Source: patent US11001587B2, “Substituted indazoles as phosphatidylinositol kinase inhibitors” (CUROVIR AB, priority 2017, dated 2021)
